Earlier results as cited in patent publication US8298573B2, “Stable sterile filterable liposomal encapsulated taxane and other antineoplastic drugs” (priority 2003, dated 2012).

solubility in water: extremely low
Structure (SMILES): CC(=O)O[C@H]1C(=O)[C@@]2(C)[C@H]([C@H](OC(=O)c3ccccc3)[C@]3(O)C[C@H](OC(=O)[C@H](O)[C@@H](NC(=O)c4ccccc4)c4ccccc4)C(C)=C1C3(C)C)[C@]1(OC(C)=O)CO[C@@H]1C[C@@H]2O [paclitaxel]
